Measured values as given in publication PMC3224040 (ACS medicinal chemistry letters, 2011).
Read-outs that look alike come from different tables or passages of the source.

Assays:
[1] = target: D2 receptor (Rattus norvegicus, UniProt P61169); conditions: for Decrease in core body temperature: pretreatment of L-741,626 at 1 mg/kg; for Dose at onset of modest D2 agonist activity: yawning and hypothermia data
[2] = Aqueous solubility; format: physicochemical; conditions: aqueous medium (not further specified)
[3] = target: dopamine D3 receptor (Rattus norvegicus, UniProt P19020); test: Yawning assay in rats; conditions: for High doses at which D2 agonist effects may be observed: antagonist interaction study in yawning assay
[4] = target: human D1 receptor (Homo sapiens, UniProt P21728); test: Binding to cloned human D1 receptor; conditions: at 10,000 nM
[5] = target: D3 receptor (Rattus norvegicus, UniProt P19020); conditions: rat brain binding, ratio of Ki values
[6] = cited from earlier work
[7] = test system: D3 receptor; conditions: cited from earlier work; for Selectivity over the D2 receptor: D3 agonists, in vitro binding data; for Selectivity for D3 over D2: D3 antagonists

Sequence of D2 receptor (P61169 whole entry): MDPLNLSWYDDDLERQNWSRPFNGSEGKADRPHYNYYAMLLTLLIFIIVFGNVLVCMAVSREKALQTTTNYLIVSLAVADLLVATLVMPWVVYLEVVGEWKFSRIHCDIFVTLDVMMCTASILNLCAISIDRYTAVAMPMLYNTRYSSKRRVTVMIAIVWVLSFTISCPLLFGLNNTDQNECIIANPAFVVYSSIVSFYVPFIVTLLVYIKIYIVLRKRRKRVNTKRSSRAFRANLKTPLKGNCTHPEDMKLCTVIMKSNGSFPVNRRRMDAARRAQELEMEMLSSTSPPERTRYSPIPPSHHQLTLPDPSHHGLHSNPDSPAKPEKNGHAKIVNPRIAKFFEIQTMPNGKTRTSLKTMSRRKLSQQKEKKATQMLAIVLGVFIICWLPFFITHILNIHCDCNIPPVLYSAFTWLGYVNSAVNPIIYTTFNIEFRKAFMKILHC
Sequence of dopamine D3 receptor (P19020 whole entry): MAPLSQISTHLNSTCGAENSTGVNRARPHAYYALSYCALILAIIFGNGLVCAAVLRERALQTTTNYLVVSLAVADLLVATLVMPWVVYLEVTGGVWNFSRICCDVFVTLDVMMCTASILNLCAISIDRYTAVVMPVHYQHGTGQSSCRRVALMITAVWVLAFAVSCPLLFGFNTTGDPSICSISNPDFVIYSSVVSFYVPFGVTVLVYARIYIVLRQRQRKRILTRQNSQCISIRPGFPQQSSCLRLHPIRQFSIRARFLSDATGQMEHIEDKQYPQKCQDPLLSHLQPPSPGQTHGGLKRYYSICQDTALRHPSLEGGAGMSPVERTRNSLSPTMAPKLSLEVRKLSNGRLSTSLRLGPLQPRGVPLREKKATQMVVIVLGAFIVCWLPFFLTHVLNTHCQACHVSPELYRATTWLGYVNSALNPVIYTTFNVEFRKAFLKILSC
Sequence of D3 receptor (Rattus norvegicus, UniProt P19020) (P19020 whole entry): as above
Sequence of human D1 receptor (P21728 whole entry): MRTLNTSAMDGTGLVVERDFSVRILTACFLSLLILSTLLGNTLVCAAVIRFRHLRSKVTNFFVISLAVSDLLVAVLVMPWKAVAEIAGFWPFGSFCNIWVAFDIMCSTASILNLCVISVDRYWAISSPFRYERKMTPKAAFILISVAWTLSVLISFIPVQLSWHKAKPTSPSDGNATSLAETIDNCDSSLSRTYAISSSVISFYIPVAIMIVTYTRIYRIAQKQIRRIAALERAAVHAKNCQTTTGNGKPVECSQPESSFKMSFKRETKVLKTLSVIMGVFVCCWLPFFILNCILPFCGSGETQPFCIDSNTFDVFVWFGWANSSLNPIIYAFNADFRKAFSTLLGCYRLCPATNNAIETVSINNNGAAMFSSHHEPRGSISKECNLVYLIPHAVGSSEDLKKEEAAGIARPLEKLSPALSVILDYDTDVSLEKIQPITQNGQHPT

For `CCCN(CC[C@]1(O)C[C@H](NC(=O)c2ccc3ccccc3c2)C1)[C@H]1CCc2nc(N)sc2C1` [Compound 17], the “Effect on core body temperature” value ([1]; 3.2 mg/kg) was “no significant effect”, the “Effect on core body temperature” value ([1]; 10 mg/kg) was “significant but a modest effect” and the “Decrease in core body temperature” value ([1]; 10 mg/kg) was “approximately 0.75 °C”. For the same molecule, the “Dose at onset of modest D2 agonist activity” value [1] was 10 mg/kg, the solubility [2] was over 100 mg/mL and the “Dose producing peak levels of yawning” value [3] was 1.0 mg/kg. For the same molecule, the “High doses at which D2 agonist effects may be observed” value [3] was ~ 10.0 mg/kg, the “Dose active at the D3 receptor (significant yawning activity)” value ([3]; lowest active dose) was 0.01 mg/kg and the “Binding to human D1 receptor” value [4] was “no detectable binding”.

With `CCCN(CC[C@]1(O)CC[C@H](NC(=O)c2ccc3ccccc3c2)CC1)[C@H]1CCc2nc(N)sc2C1` [Compound 13] the “Selectivity D1-like/D3” value [5] was 15,115.

In the case of `CCCN(CC[C@H]1CC[C@H](NC(=O)c2ccc3ccccc3c2)CC1)[C@H]1CCc2nc(N)sc2C1` [Compound 11], the Aqueous solubility [6] is given as over 50 mg/mL.

In the case of `OC1(c2ccc(Cl)cc2)CCN(Cc2c[nH]c3ccccc23)CC1` [L-741,626], the “Effect of antagonist on hypothermia induced by compound 17” value ([1]; 10 mg/kg compound 17) was “did not have a significant effect”, the “Effect of antagonist on hypothermia induced by pramipexole” value ([1]; in vivo, 0.32 mg/kg) was “significantly reversed” and the “Effect of antagonist on yawning induced by lower agonist doses” value ([3]; pramipexole 0.1 mg/kg and 17 1.0 mg/kg) was “failed to modulate”.

For `CCCN[C@H]1CCc2nc(N)sc2C1` [Compound 1, Pramipexole], the “Decrease in core body temperature” value ([1]; 0.32 mg/kg) was “approximately 0.75 °C”, the “Effect on core body temperature” value ([1]; doses of 0.32 and 1.0 mg/kg) was “significant decreases” and the “Dose at onset of modest D2 agonist activity” value [1] was 0.32 mg/kg. The “High doses at which D2 agonist effects may be observed” value [3] was ~ 1.0 mg/kg.

In the case of `CCCN(CCC)C1CCc2ccc(O)cc2C1` (centres unmarked) [Compound 3, 7-hydroxy dipropylaminotetralin], the “Selectivity over the D2 receptor” value [7] is given as under 100 fold.

In the case of `Cc1nc(-c2cccc(C(=O)NC3CCC(CCN4CCc5ccc(S(C)(=O)=O)cc5CC4)CC3)c2)no1` (centres unmarked) [Compound 5], the “Selectivity for D3 over D2” value [7] is listed as at most 100 fold.

For `O=C(NCCCCN1CCN(c2cccc(Cl)c2Cl)CC1)c1ccc2c(c1)Cc1ccccc1-2` [Compound 6], the “Selectivity for D3 over D2” value [7] is given as at most 100 fold.

With `CCCN(CC[C@]1(O)C[C@@H](NC(=O)c2ccc3ccccc3c2)C1)[C@H]1CCc2nc(N)sc2C1` [Compound 16] the solubility [2] was over 100 mg/mL and the “Dose producing peak levels of yawning” value [3] was 1.0 mg/kg.

For `N#Cc1ccc2c(c1)CCN(CCC1CCC(NC(=O)c3ccnc4ccccc34)CC1)C2` (centres unmarked) [Compound 4], the “Selectivity for D3 over D2” value [7] is listed as at most 100 fold.

With `CCCN(CC[C@]1(O)CC[C@@H](NC(=O)c2ccc3ccccc3c2)CC1)[C@H]1CCc2nc(N)sc2C1` [Compound 12] the “Selectivity D1-like/D3” value [5] was 7,373.

In the case of `CCCN1CCC[C@@H]2Cc3n[nH]cc3C[C@H]21` [Compound 2, Quinpirole], the “Selectivity over the D2 receptor” value [7] is listed as under 100 fold.

With `CCCN(CC[C@H]1C[C@H](NC(=O)c2ccc3ccccc3c2)C1)[C@H]1CCc2nc(N)sc2C1` [Compound 14] the “Selectivity D1-like/D3” value [5] was 14,848.

For `CCCN(CC[C@H]1CC[C@H](NC(=O)/C=C/c2ccccc2)CC1)[C@H]1CCc2nc(N)sc2C1` [Compound 10], the Aqueous solubility [6] is listed as over 50 mg/mL.

For `CCCN(CC[C@H]1C[C@@H](NC(=O)c2ccc3ccccc3c2)C1)[C@H]1CCc2nc(N)sc2C1` [Compound 15], the “Selectivity D1-like/D3” value [5] was 8,822.
